According to US20260069657A1, “Haptoglobulin for Use in Treating or Preventing Exaggerated Erectile Response or Erectile Dysfunction” (CSL Behring AG, priority 2022, published 2026):

Tests used:
Assay type in all cases: in vivo, mouse
[1] = system: corpus cavernosum strips from SCD mice; assay: Concentration-response relaxation curves to ACh and SNP in cavernosal strips pre-contracted with phenylephrine
Method: (§1) All mice strains were originally purchased from Jackson Laboratories (Bar Harbor, ME). Characterization and breeding were performed at the Multidisciplinary Center for the Investigation of Biological Science in Laboratory Animals of University of Campinas. C57BL/6 male mice (wild-type, WT) and Berkeley transgenic SCD mice, aged 3 to 4 months-old, were used. Mice were housed three per cage on a 12 h light-dark cycle. SCD male mice were treated with treatment with haptoglobin (400 mg/kg, subcutaneous) or vehicle of Monday, Wednesday and Friday for a period of 1 month (24).
(§2) Strips of mouse corpus cavernosum were mounted in a 7-ml organ system containing Krebs solution at 37° C., continuously bubbled with a mixture of 95% O2 and 5% CO2 (pH 7.4), and suspended between two metal hooks. One hook was connected to a force transducer and the other acted as a fixed attachment point. Tissues were allowed to equilibrate for 60 min under a resting tension of 2.5 mN. Isometric force was recorded using a PowerLab 400™ data acquisition system (Software LabChart, version 7.0, AD Instrument, MA, USA). Cumulative concentration-response curves were constructed for the muscarinic agonist acetylcholine (ACh; 10^−9 to 10^−5 M) and sodium nitroprusside (SNP; 10^−8 to 10^−4 M) in cavernosal strips pre-contracted with phenylephrine (10^−5 M). Cumulative concentration-response curves to the contractile agent phenylephrine (α1-adrenergic receptor agonist, 10^−8 to 3×10^−4 M) and KCl (3×10^−4 to 3×10^−1 M) were obtained in cavernosal strips. Nonlinear regression analysis to determine the pEC50 was carried out using GraphPad Prism (GraphPad Software, San Diego, CA, USA).

[2] = system: corpus cavernosum strips from SCD mice; assay: Electrical-field stimulation (EFS)-induced nitrergic relaxations of cavernosal strips; settings: 2-32 Hz, guanethidine and atropine pretreated strips, haptoglobin 400 mg/kg s.c. 1 month
Method: as §1
EFS was applied on cavernosal strips placed between two platinum ring electrodes connected to a Grass S88 stimulator (Astro-Med Industrial Park, RI, USA). EFS was conducted at 50 V, 1 ms pulse width and trains of stimuli lasting 10 sec at varying frequencies. In order to study the nitrergic cavernosal relaxations, tissues were pretreated with guanethidine (3×10^−5 M; to deplete the catecholamine stores of adrenergic fibers) and atropine (10^−6 M; to produce muscarinic antagonism) for 30 minutes prior to pre-contraction with phenylephrine (10^−5 M). When a stable contraction level was attained, a series of EFS-induced relaxations were constructed (2-32 Hz).

[3] = system: corpus cavernosum strips from SCD mice; assay: Concentration-response contraction curves to phenylephrine and KCl in cavernosal strips; settings: SCD mice treated with haptoglobin 400 mg/kg s.c. 1 month, mean ± SEM
Method: as §1
as §2, with “Cumulative concentration-response curves to the contractile agent phenylephrine (α1-adrenergic receptor agonist, 10^−8 to 3×10^−4 M) and KCl (3×10^−4 to 3×10^−1 M) were obtained in cavernosal strips. Nonlinear regression analysis to determine the pEC50 was carried out using GraphPad Prism (GraphPad Software, San Diego, CA, USA).” left out

p-eNOS (Ser-1177) = assay: Western blot of penis homogenates, p-eNOS (Ser-1177); settings: SCD mice, haptoglobin 400 mg/kg s.c. 1 month; normalized to eNOS; P<0.05
Method: as §1
(§3) Corpus cavernosum tissue was homogenized in lysis buffer and centrifuged at 12,000 g for 20 minutes at 4° C. Homogenates containing […] total proteins were run on 4-20% Tris-HCl gels (Bio-Rad Laboratories, Hercules, CA, USA) and transferred to a nitrocellulose membrane. Nonfat dry milk 5% (Bio-Rad) in Tris-buffered saline/Tween was used for 1 hour at 24° C. to block nonspecific binding sites. […] Densitometry was analyzed using the Image J Software (National Institute of Health, Bethesda-MD, USA). Quantified densitometry results were normalized to β-actin. Quantified densitometry results of eNOS phosphorylated at Ser1177 were normalized to total eNOS.

eNOS = assay: Western blot of penis homogenates, eNOS; settings: SCD mice, haptoglobin 400 mg/kg s.c. 1 month; normalized to β-actin; P<0.05
Method: as §1, §3

nNOS = assay: Western blot of penis homogenates, nNOS; settings: SCD mice, haptoglobin 400 mg/kg s.c. 1 month; normalized to β-actin
Method: as §1, §3

PDE5 = assay: Western blot of penis homogenates, PDE5; settings: SCD mice, haptoglobin 400 mg/kg s.c. 1 month, vs SCD-vehicle
Method: as §1, §3

ROCK2 = assay: Western blot of penis homogenates, ROCK2; settings: SCD mice, haptoglobin 400 mg/kg s.c. 1 month; normalized to β-actin
Method: as §1, §3

ROCK1 = assay: Western blot of penis homogenates, ROCK1; settings: SCD mice, haptoglobin 400 mg/kg s.c. 1 month; compared to WT-vehicle
Method: as §1, §3

[4] = system: NADPH oxidase subunit gp91phox; assay: Western blot of penis homogenates, gp91phox; settings: SCD mice, haptoglobin 400 mg/kg s.c. 1 month; normalized to β-actin
Method: as §1, §3

3-nitrotyrosine = assay: Western blot of penis homogenates, 3-nitrotyrosine; settings: SCD mice, haptoglobin 400 mg/kg s.c. 1 month, vs SCD-vehicle
Method: as §1, §3

4-HNE = assay: Western blot of penis homogenates, 4-HNE; settings: SCD mice, haptoglobin 400 mg/kg s.c. 1 month, vs SCD-vehicle
Method: as §1, §3

cGMP = assay: Determination of basal cGMP levels in penis (enzyme immunoassay); settings: SCD mice, haptoglobin treatment, vs SCD-vehicle, P<0.05
Method: as §1
Quantitative assays for cGMP were performed using a commercial enzyme immunoassay kit (Cayman Chemical Cyclic GMP EIA kit, Ann Arbor, MI, USA). For penile cGMP content, frozen penile tissue was homogenized in 5% trichloroacetic acid and centrifuged. TCA was extracted from the supernatant with three washes of water-saturated ether. cGMP was expressed as pmol/mg tissue.

- Effect of treatment on raised SNP pEC50 value ([1]; SCD mice, haptoglobin 400 mg/kg s.c., P<0.05): reversed
- Effect on potency (pEC50) for ACh among the groups ([1]; WT-vehicle, SCD-vehicle, SCD-haptoglobin): No significant differences
- pEC50 of ACh relaxation curve, SCD-Haptoglobin ([1]; agonist ACh, cavernosal strips from SCD mice treated with haptoglobin 400 mg/kg s.c. Mon/Wed/Fri for 1 month, mean ± SEM): 7.12
- pEC50 of SNP relaxation curve, SCD-Haptoglobin ([1]; agonist SNP, cavernosal strips from SCD mice treated with haptoglobin 400 mg/kg s.c. Mon/Wed/Fri for 1 month, mean ± SEM): 6.08
- Increase of basal cGMP levels in penis (cGMP): approximately 72%
Substance: Haptoglobin: Human haptoglobin (Hp) solution, a kind gift from CSL Behring; plasma glycoprotein that binds free hemoglobin
- Effect of treatment on Emax produced by SNP ([1]; SCD mice, haptoglobin 400 mg/kg s.c., vs SCD-vehicle): reduced
- Effect of treatment on Emax values of ACh ([1]; SCD mice, haptoglobin 400 mg/kg s.c., vs SCD-vehicle, P<0.05): reduced
- Emax (%) of ACh relaxation curve, SCD-Haptoglobin ([1]; agonist ACh, relative to phenylephrine (10^-5 M) contraction = 100%, SCD mice, haptoglobin 400 mg/kg s.c. 3x/week, 1 month, mean ± SEM): 42 ± 6 %
- Emax (%) of SNP relaxation curve, SCD-Haptoglobin ([1]; agonist SNP, relative to phenylephrine (10^-5 M) contraction = 100%, SCD mice, haptoglobin 400 mg/kg s.c. 3x/week, 1 month, mean ± SEM): 78 ± 4%
- Effect of treatment on EFS-induced relaxant responses [2]: reduced
- Emax of KCl-induced contraction ([3]; KCl, receptor-independent): 0.30±0.07 mN
- Emax of phenylephrine-induced contraction ([3]; phenylephrine 10^-8 to 3x10^-4 M): 0.79±0.11 mN
- Protein level of p-eNOS (Ser-1177) in penis (p-eNOS (Ser-1177)): normalized
- Protein level of eNOS in penis (eNOS): normalized
- Protein expression of nNOS in penis (nNOS): not modified
- Increase of protein level of PDE5 in penis (PDE5): approximately 52%
- Protein levels of ROCK2 in penis (ROCK2): fully restored
- Protein expression of ROCK1 in penis (ROCK1): not modified
- Protein levels of gp91phox in penis [4]: fully restored
- Reduction of protein level of 3-nitrotyrosine in penile tissue (3-nitrotyrosine): approximately 27%
- Reduction of protein level of 4-HNE in penile tissue (4-HNE): ~28%
